Drawing on ChEMBL document CHEMBL3351444, “Poliothrysoside and its derivatives as novel insulin sensitizers potentially driving AMPK activation and inhibiting adipogenesis” (Eur J Med Chem, 2014), this text covers Activity and inhibition for 8 compounds.

Series [1] deals with 3T3-L1. Briefly: Induction of [3H] 2-deoxyglucose uptake in chronic insulin resistant mouse 3T3L1 cells assessed as maximum uptake by liquid scintillation counting. Type of series: functional, cell-based.
For series [2], the system named is 3T3-L1. Briefly: Inhibition of adipogenesis in mouse 3T3L1 cells assessed as reduction in lipid droplet formation by using Oil-Red O by microscopy. Type of series: functional, cell-based.
Series [3] has as its system 3T3-L1. Briefly: Induction of AKT phosphorylation in mouse 3T3L1 cells at 10 uM by Western blot analysis. It counts as cell-based.
Series [4] deals with 3T3-L1. The experiment in a line: Inhibition of adipogenesis in mouse 3T3L1 cells assessed as reduction in lipid droplet formation at 10 uM by using Oil-Red O by microscopy. It counts as functional, cell-based.
Series [5] concerns 3T3-L1. Briefly: Induction of [3H] 2-deoxyglucose uptake in chronic insulin resistant mouse 3T3L1 cells assessed as maximum uptake at 10 uM by liquid scintillation counting. Type of series: functional.
Series [6] relates to 3T3-L1. Briefly: Induction of AMPK phosphorylation in mouse 3T3L1 cells at 10 uM by Western blot analysis. It counts as cell-based.
In series [7] the test system is 3T3-L1. The experiment in a line: Induction of [3H] 2-deoxyglucose uptake in chronic insulin resistant mouse 3T3L1 cells at 10 uM after 24 hrs by liquid scintillation counting in presence of AMPK inhibitor compound C. Type of series: functional, cell-based.
Series [8] deals with 3T3-L1. Briefly: Inhibition of adipogenesis in mouse 3T3L1 cells assessed as reduction in lipid droplet formation at 20 uM by using Oil-Red O by microscopy. Type of series: functional.
Series [9] deals with 3T3-L1. The experiment in a line: Inhibition of adipogenesis in mouse 3T3L1 cells assessed as reduction in lipid droplet formation at 50 uM by using Oil-Red O by microscopy. Type of series: functional.
Series [10] in a line: Toxicity in mouse 3T3L1 cells. It counts as cell-based. The conditions noted are these: 3t3-l1.
The test system of series [11] is 3T3-L1. The experiment in a line: Induction of AMPK phosphorylation in mouse 3T3L1 cells at 1 mM by Western blot analysis. Type of series: cell-based.

SMILES strings stand for the structures. Activity calls are given as the source filed them. The calls are words filed in the database; no cut-off is given here.

Take `CC(=O)OCc1cc(OC(C)=O)ccc1O[C@@H]1O[C@H](COC(=O)c2ccccc2)[C@@H](OC(C)=O)[C@H](OC(C)=O)[C@H]1OC(C)=O`: the Activity result was “Dose-dependent effect” in series [1], 17.35 pmol/mg/min in series [5] and “Non-toxic” in [10]. For the same compound, the inhibition entry in series [2] was “Dose-dependent effect”. Moreover, the outcome in series [3] and in series [7] was inactive. The inhibition entry in series [4] was “inactive”. For the same compound, in series [6], the outcome was Active. Also, the inhibition at 20 µM in series [8] is 20%. In [9], the inhibition at 50 µM was 64%.
In the case of `O=C(OC[C@H]1O[C@@H](Oc2ccc(O)cc2CO)[C@H](O)[C@@H](O)[C@@H]1O)c1ccccc1`, in [5], the outcome was Active.
For the compound `CCOc1ccc(O[C@@H]2O[C@H](COC(=O)c3ccccc3)[C@@H](O)[C@H](O)[C@H]2O)c(CO)c1`, the outcome in series [5] was Active.
With `O=C(OC[C@H]1O[C@@H](Oc2ccc(OCc3ccc([N+](=O)[O-])cc3)cc2CO)[C@H](O)[C@@H](O)[C@@H]1O)c1ccccc1`, the result in [5] was Active.
Regarding `O=C(COc1ccc(O[C@@H]2O[C@H](COC(=O)c3ccccc3)[C@@H](O)[C@H](O)[C@H]2O)c(CO)c1)c1ccc(Cl)cc1`, the outcome in [5] was Active.
On to `CN(C)C(=N)NC(=N)N`, for which, in [11], the outcome was Active.
Regarding `O=C(COc1ccc(O[C@@H]2O[C@H](COC(=O)c3ccccc3)[C@@H](O)[C@H](O)[C@H]2O)c(CO)c1)c1ccccc1`, the result in series [5] was Active.
`O=C(OC[C@H]1O[C@@H](Oc2ccc(OCc3ccccc3)cc2CO)[C@H](O)[C@@H](O)[C@@H]1O)c1ccccc1`: in [5], the result was Active.
